This note sets out measurements from patent publication US4029547A (priority 1974, dated 1977).

For orientation: IC50 means the point on the concentration scale where inhibition reaches its midpoint.

In series [1] the target is T1, aminopeptidase B (Rattus norvegicus, UniProt O09175).
T1 construct: aminopeptidase B of rat liver; from tissue; host or cells: rat liver, enzyme prepared by Sephadex 100 chromatography
T1 sequence (O09175 1-650): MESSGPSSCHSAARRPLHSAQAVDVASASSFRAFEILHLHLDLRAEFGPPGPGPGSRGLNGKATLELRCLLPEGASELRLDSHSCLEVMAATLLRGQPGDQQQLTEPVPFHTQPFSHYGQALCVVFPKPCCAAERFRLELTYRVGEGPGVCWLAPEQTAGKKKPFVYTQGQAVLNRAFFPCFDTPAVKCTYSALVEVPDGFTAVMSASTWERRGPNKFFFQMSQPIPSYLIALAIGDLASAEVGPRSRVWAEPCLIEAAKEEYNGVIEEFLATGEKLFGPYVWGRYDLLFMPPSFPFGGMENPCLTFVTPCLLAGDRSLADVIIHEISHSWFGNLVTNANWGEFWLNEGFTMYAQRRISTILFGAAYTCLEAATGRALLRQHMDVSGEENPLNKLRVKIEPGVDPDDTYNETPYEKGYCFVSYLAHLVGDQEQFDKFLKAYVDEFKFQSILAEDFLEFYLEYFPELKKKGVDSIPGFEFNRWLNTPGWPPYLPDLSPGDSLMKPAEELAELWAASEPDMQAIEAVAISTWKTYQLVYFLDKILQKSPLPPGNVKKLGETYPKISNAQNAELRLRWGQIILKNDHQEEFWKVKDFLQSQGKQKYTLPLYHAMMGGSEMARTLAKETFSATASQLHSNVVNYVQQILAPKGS
Nature of the series: Inhibition of aminopeptidase B (arginine β-naphthylamide hydrolysis). In kind it is biochemical. Conditions: for 50% inhibition dose (ID50) of aminopeptidase B: amount added to the test solution. As for the experimental part: To the mixture of 0.3 ml of 1 mM arginine β-naphthylamide and 1.0 ml of 0.1 M Tris hydrochloride buffer (pH 7.0), 0.7 ml of distilled water with or without a test material is added and warmed at 37° C.) for 3 minutes. The reaction is started by addition of 0.2 ml of aminopeptidase B solution which is prepared by Sephadex 100 chromatography as described by Hopusu et al. After 30 minutes at 37° C., 0.6 ml of 1.0 M acetate buffer (pH 4.2) containing diazonium salt of o-aminoazotoluene at 1.0 mg/ml and Tween 20 at 10% is added. […] The inhibition percent is calculated as follows: (b-a)/b × 100.

The nature of series [2]: Toxicity after intraperitoneal injection. In kind it is in vivo, mouse.
Series [3] has as its system fungi. Put plainly: Antifungal activity. The format is cell-based. The following applies: at 100 μg/ml.
For series [4], the target named is T2, papain (Carica papaya, UniProt P00784).
T2 sequence (P00784 134-345): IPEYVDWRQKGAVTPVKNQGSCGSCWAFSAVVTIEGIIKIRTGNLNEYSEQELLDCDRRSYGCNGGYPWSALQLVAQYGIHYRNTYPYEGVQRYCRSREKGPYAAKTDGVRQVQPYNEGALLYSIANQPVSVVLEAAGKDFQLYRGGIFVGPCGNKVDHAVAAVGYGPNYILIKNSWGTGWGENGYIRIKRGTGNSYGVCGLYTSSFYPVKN
Put plainly: Inhibition of papain. The format is biochemical.

For series [5], the system named is methylcholanthrene-induced squamous cell carcinoma. Nature of the series: Increase of bleomycin effect on carcinoma in vivo. Set-up: species or system rat. The following applies: simultaneous subcutaneous daily injection, 5 mg/kg bestatin with 5 mg/kg bleomycin, rats.
Series [6] relates to chymotrypsin. Nature of the series: Inhibition of chymotrypsin. In kind it is biochemical.
The subject of series [7] is bleomycin hydrolase. Put plainly: Inhibition of bleomycin hydrolase. In kind it is biochemical.
Series [8] can be described thus: Solubility in solvents. The format is physicochemical.
Series [9] is described as follows: Stability to pH and heat. In kind it is physicochemical. Conditions: culture filtrate containing bestatin, pH 2.0 or pH 9.0, 60° C., 30 minutes.
The test system of series [10] is pepsin. Put plainly: Inhibition of pepsin. In kind it is biochemical.
Series [11] deals with T3, thermolysin (Bacillus thermoproteolyticus, UniProt P00800).
T3 sequence (P00800 233-548): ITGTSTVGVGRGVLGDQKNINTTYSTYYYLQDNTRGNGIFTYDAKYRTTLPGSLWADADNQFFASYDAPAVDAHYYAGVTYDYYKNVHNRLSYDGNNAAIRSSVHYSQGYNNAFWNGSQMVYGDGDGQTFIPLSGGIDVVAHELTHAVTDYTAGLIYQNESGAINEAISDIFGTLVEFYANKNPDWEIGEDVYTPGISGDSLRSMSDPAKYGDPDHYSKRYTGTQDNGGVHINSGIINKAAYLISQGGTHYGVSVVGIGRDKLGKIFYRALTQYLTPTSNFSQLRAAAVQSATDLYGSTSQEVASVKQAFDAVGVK
Put plainly: Inhibition of thermolysin. In kind it is biochemical.

Series [12] concerns Yoshida rat sarcoma cells. Nature of the series: Increase of bleomycin activity in tissue culture. The following applies: bestatin 6.25 μg/ml in tissue culture medium. In kind it is cell-based.
The test system of series [13] is trypsin. Nature of the series: Inhibition of trypsin. The format is biochemical.
For series [14], the target named is T4, leucine aminopeptidase (Sus scrofa, UniProt P28839).
T4 construct: leucine aminopeptidase of swine kidney; from tissue; host or cells: swine kidney
T4 sequence (P28839 33-519 limits assumed): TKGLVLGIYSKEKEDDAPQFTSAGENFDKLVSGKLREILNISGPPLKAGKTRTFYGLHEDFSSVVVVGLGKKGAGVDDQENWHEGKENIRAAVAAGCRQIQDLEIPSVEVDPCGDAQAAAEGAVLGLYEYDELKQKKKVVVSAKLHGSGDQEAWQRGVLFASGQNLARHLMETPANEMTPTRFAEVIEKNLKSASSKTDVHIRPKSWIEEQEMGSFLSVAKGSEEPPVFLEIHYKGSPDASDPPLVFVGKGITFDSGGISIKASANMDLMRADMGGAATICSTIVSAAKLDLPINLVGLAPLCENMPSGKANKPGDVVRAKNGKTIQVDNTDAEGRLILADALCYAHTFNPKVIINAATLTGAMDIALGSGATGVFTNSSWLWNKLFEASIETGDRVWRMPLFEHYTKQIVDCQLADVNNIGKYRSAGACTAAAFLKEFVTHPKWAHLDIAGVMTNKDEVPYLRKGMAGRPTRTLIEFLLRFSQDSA
Nature of the series: Inhibition of leucine aminopeptidase (L-leucine naphthylamide hydrolysis). In kind it is biochemical, swine. Conditions: substrate L-leucine-β-naphthylamide. As for the experimental part:
The activity was determined by the following method: to 0.25 ml. of 2 mM L-leucine-3-naphthylamide (Tokyo Chem. Indust. Co., Ltd., Japan) was added 0.5 ml. of 0.1 M Tris-HCl buffer at pH 7.0 and 0.2 ml. of distilled water with or without an inhibitor in a series of test tubes in a 37° C. bath. After 3 minutes, 0.05 ml. of enzyme solution was added and mixed well.

Series [15] deals with mammalian cells including cancer cells. Put plainly: Inhibition of growth of mammalian cells. In kind it is cell-based.
Series [16] concerns aminopeptidase A of human serum. Put plainly: Inhibition of aminopeptidase A. In kind it is biochemical.
Series [17] deals with elastase. Put plainly: Inhibition of elastase. The format is biochemical.
Series [18] relates to bacteria. Put plainly: Antibacterial activity. In kind it is cell-based.

Values joined by “and” are separate entries in the source; they are usually repeats but may differ in a detail not shown here. Equal values may be shown once. “Also recorded” adds a separate entry of the source. Read-outs that look alike come from different tables or passages of the source.

For `COC(=O)[C@H](CC(C)C)NC(=O)[C@@H](O)[C@@H](Cc1ccccc1)NC(C)=O` [N-acetyl-bestatin methyl ester], the “50% inhibition dose (ID50) of aminopeptidase B” value (“50% inhibition dose (ID50)” for short) in [1] worked out at 8 µg.
Regarding `CC(C)C[C@H](NC(=O)[C@@H](O)[C@H](N)Cc1ccccc1)C(=O)O` [bestatin, [(2S,3R)-3-amino-2-hydroxy-4-phenylbutanoyl]-L-leucine], in series [2] (intraperitoneal injection of 295 mg/kg, mouse), the toxicity result is “no toxicity”. Also, in [2] (intraperitoneal injection of 300 mg/kg, mice), the death result is listed as “no death”. The IC50 in [1] (aminopeptidase B of rat liver) was 178 nM. The “50% inhibition dose (ID50)” value in series [1] is 0.1 µg and 0.10 µg. Besides, the mode of inhibition result in series [1] (substrate L-arginine-β-naphthylamide) and in [14] was “competitive with the substrate” each time. Besides, in series [3], the antifungal activity result was “no antifungal”. Besides, the inhibition of papain entry in [4] is “did not show any inhibition”. In addition, the “increase of bleomycin effect on squamous cell carcinoma” value in [5] is listed as 4 times. Also, the inhibition of chymotrypsin result in series [6] is given as “did not show any inhibition”. The “inhibition of bleomycin hydrolase” value in series [7] was “strong inhibition”. For the same compound, the solubility result in [8] (ethyl acetate, butyl acetate, ethyl ether, hexane, petroleum ether, benzene, chloroform) is “practically insoluble; also recorded: hardly soluble”; in [8] (propanol and butanol), “slightly soluble; also recorded: less soluble”; in [8] (water, acetic acid, pyridine, dimethylsulfoxide, methanol, ethanol), “soluble”. In addition, the “stability (activity after treatment)” value in series [9] was “No decrease of the activity”. The inhibition of pepsin result in series [10] is listed as “did not show any inhibition”. Further, the inhibition of thermolysin result in series [11] is “did not show any inhibition”. In addition, the “increase of bleomycin activity in inhibiting Yoshida rat sarcoma cells” value in [12] is 4- 8 times. The inhibition of trypsin entry in series [13] was “did not show any inhibition”. In addition, in [15], the “inhibition of growth of mammalian cells” value is reported as “weak inhibition”. Also, the “inhibition of aminopeptidase A” value in [16] was “did not show any inhibition”; in series [16] (at 100 μg/ml, aminopeptidase A of human serum), 26.4%. Further, the inhibition of elastase result in series [17] is “did not show any inhibition”. For the same compound, the antibacterial activity entry in [18] (at 100 μg/ml) is recorded as “no antibacterial”; in series [18] (no concentration given) it was “substantially no antibacterial activity”.
`COC(=O)[C@H](CC(C)C)NC(=O)[C@@H](O)[C@H](N)Cc1ccccc1` [methyl ester of bestatin]: the “50% inhibition dose (ID50)” value in series [1] was determined as 8.4 µg.
